From ChEMBL document CHEMBL1201862, “PubChem BioAssay data set” (2004)
Activity calls are given as the source filed them.

How the values were obtained:
Estrogen receptor beta [1] = target: T1, Estrogen receptor beta (Homo sapiens, UniProt Q92731); assay: blockers of SRC-3 recruitment to ERβ – biochemical, ELISA, streptavidin-HRP readout, orthogonal assay, confirmation (AID 1060)
[2] = target: T2, Oxysterols receptor LXR-beta (Homo sapiens, UniProt P55055); format: functional, cell-based;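 further: agonist activity at LXR measured by a cell-based luminescence readout across a dose range, run as a counterscreen for daf-12 agonists; potency for activation of Gal4-LXR reporter so compounds are agonists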
T2 sequence (P55055 whole entry): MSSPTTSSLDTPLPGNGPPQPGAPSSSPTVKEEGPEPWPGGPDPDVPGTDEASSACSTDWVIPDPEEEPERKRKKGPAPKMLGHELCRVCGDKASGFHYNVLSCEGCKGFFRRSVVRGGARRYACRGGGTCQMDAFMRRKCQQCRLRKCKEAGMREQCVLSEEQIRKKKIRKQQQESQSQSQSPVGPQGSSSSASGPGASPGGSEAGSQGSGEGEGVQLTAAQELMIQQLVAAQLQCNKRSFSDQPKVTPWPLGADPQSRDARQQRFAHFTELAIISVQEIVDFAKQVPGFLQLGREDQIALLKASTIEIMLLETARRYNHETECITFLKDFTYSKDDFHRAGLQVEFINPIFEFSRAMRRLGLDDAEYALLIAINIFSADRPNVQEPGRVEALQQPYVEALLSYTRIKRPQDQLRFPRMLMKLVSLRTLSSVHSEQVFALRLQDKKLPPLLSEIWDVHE

[3] = NIH-3T3 fibroblast cytotoxicity, dose response, cytotoxicity control, cell-based, fluorescence, Alamar Blue, secondary assay (AID 2327); format: functional;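 further: NIH-3T3 mouse fibroblasts cultured with fluconazole at 8 µg/mL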
[4] = fluconazole-exposed Candida albicans growth modulators – fluorescence, retest, confirmation (AID 2467); format: functional, cell-based
[5] = target: T3, Mannose-6-phosphate isomerase (Homo sapiens, UniProt P34949); assay: MPI inhibition at elevated mannose 6-phosphate – biochemical, fluorescence intensity, high mannose 6-phosphate, primary screen (AID 1220)
T3 sequence (P34949 whole entry): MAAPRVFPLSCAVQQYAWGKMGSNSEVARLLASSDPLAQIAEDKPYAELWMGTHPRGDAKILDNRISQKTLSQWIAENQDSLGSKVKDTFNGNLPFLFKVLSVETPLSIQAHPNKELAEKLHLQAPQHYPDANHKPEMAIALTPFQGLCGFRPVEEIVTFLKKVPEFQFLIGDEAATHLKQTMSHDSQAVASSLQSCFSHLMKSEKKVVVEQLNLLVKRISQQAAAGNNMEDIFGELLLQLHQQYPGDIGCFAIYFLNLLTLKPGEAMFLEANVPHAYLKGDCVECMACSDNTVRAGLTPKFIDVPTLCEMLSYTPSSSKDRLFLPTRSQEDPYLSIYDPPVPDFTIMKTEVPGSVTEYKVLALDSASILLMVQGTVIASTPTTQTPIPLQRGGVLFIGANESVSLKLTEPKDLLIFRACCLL

[6] = target: T4, Carboxy-terminal domain RNA polymerase II polypeptide A small phosphatase 1 (Homo sapiens, UniProt Q9GZU7); assay: CTDSP1 inhibitors, concentration-response, biochemical, absorbance readout, ultra-high-throughput screen actives (AID 540297); format: functional
T4 sequence (Q9GZU7 whole entry): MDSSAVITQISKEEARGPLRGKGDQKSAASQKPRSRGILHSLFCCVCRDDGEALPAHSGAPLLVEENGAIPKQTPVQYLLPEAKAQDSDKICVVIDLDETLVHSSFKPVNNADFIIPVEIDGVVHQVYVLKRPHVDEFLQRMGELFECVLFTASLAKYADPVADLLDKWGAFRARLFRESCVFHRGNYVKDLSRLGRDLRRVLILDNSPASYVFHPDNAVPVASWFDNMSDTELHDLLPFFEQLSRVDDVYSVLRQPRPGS

BJ [7] = assay: BJ-TERT fibroblast viability loss – cell-based, RAS-independent, luminescence, dose response (AID 1933); format: functional; conditions: Homo sapiens
[8] = DRD fibroblast viability loss – cell-based, non-viral oncogenic, luminescence, dose response (AID 1934); format: functional; conditions: Homo sapiens
BJ [9] = assay: BJ-TERT-LT-ST fibroblast viability loss – cell-based, RAS-independent, luminescence, dose response (AID 1935); format: functional; conditions: Homo sapiens;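 further: BJ fibroblasts immortalized with TERT plus LT and ST oncogenes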
BJ [10] = assay: cells; format: functional, cell-based; conditions: Homo sapiens
Estrogen receptor beta [11] = target: T1, Estrogen receptor beta
Prothrombin = Prothrombin (Homo sapiens, UniProt P00734); assay: Thrombin 1536 HTS Dose Response Confirmation. [Related pubchem assays: 1046 (Thrombin 1536 HTS; hits were confirmed in this assay)]; format: functional
[12] = NIH3T3 cell viability loss – ATP luminescence, mouse fibroblasts, counter-screen, dose response (AID 2010); format: functional, cell-based;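 further: cells exposed to compound for about 90 hours before reading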
[13] = target: T2, Oxysterols receptor LXR-beta; assay: LXR agonists, Gal4 luciferase reporter, dose response, counter-screen for ssDAF-12 agonist project, cell-based, luminescence, HEK293, S. stercoralis campaign (AID 720737); format: functional; conditions: read-out: IC50 (the source's name)
[14] = Luminescence-based cell-based high throughput dose response assay to identify activators of the DAF-12 from the parasite S. stercoralis (ssDAF-12).; format: functional
[15] = Trypanosoma cruzi growth suppression in host cells – NIH3T3 host cells, beta-gal luminescence, confirmation (AID 2044); format: functional, cell-based;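 further: intracellular parasites grown in NIH/3T3 mouse fibroblasts as host cells; luminescent beta-galactosidase reporter signal from transgenic T. cruzi replicating inside host cells; inhibitors lower the luminescence signal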

T1 sequence (Q92731 whole entry, the tested form may be a part): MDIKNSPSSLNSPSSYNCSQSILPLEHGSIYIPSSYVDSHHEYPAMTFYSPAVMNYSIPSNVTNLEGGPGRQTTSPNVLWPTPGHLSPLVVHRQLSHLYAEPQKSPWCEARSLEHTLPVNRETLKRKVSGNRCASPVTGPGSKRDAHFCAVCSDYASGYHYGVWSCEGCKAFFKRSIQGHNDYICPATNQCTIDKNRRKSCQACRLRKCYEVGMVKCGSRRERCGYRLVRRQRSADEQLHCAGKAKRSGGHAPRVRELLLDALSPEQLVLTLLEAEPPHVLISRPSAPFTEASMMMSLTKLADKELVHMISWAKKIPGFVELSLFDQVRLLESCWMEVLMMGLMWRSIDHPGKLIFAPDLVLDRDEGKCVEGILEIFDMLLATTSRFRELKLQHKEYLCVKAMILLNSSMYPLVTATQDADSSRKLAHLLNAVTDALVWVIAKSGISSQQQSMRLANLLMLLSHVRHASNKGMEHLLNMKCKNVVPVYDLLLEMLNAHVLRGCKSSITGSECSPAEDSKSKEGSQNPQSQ

With `CCOC(=O)c1ccc(NC(=O)COc2ccc(-n3cnnn3)cc2)cc1` the IC50 (Estrogen receptor beta [1]) was 0.0598 µM (not active).

With `Clc1ccc(CSc2nc3cc[nH]cc-3n2)cc1` the EC50 [2] was > 67.5 µM (inactive).

In the case of `CN(C)c1ccc(C(C#N)c2ccccc2)nn1` (stereo not given), the EC50 [2] was > 67.5 µM (inactive).

For `O=C1CN2C(=Nc3ccc(Cl)cc3C2c2ccccc2)CN1` (stereo not given), the EC50 [3] was > 160 µM (inactive), the EC50 [4] was 3.04 µM (active) and the IC50 (cells) was 24.2 µM (active).

For `CC(C)CCOc1ccc(C(=O)C[N+]2(C)CCOCC2)cc1`, the IC50 [5] was > 50 µM (not active) and the IC50 [6] was 9.75 µM (active).

In the case of `COc1ccc(C(=O)c2cc([N+](=O)[O-])ccc2N2CCN(C)CC2)cc1`, the EC50 (BJ [7]) was 9.22 µM (inconclusive), the EC50 [8] was 5.04 µM (active) and the EC50 (BJ [9]) was 4.39 µM (active). For the same molecule, the EC50 (BJ [10]) was 32.9 µM (active).

In the case of `O=C(CCc1ccccc1)Nc1nnc(-c2cccs2)o1`, the IC50 (Estrogen receptor beta [11]) was > 50 µM (not active).

For `CC(C)C(=O)n1nc(-c2cccnc2)nc1NCc1ccc(F)cc1`, the IC50 (Prothrombin) was 0.00567 µM (active).

For `Nc1nc(-c2ccc(Cl)cc2)nn1C(=O)c1cccnc1`, the IC50 (Prothrombin) was 1.37 µM (active).

For `Cc1ccc(C(=O)c2ccc(N3CCN(C)CC3)c([N+](=O)[O-])c2)cc1`, the EC50 (BJ [7]) was > 150 µM (not active), the EC50 [8] was > 150 µM (not active) and the EC50 (BJ [9]) was > 150 µM (not active). The EC50 (BJ [10]) was > 150 µM (not active).

For `CCCC(=O)n1nc(-c2ccco2)nc1SCc1ccccc1`, the IC50 (Prothrombin) was 0.0232 µM (active).

In the case of `CCOc1ccccc1C(=O)N[C@H](C(=O)Nc1nc2c(s1)CCCC2)C(C)C`, the EC50 [12] was > 60 µM (inconclusive), the EC50 [13] was > 67.6 µM (inactive) and the IC50 [14] was > 67.6 µM (inactive). For the same molecule, the EC50 [15] was 1.01 µM (active).

With `CCOC(=O)c1ccc2[nH]c3c(c2c1)CN(C)CC3` the IC50 (cells) was 1.22 µM (active).
